As a reminder, the Ki is a dissociation constant, usually derived from enzyme kinetics or from competition with a known ligand.

The record followed here is BindingDB's records for doi:10.1021/jm00019a006 (Glaxo Wellcome Medicines Research Centre, 1995).

The assay in a line: The compound was tested for binding affinity against Tachykinin receptor 1 from rabbit cortex.

Consider `O=C1OC2(CCN(CCc3c[nH]c4ccc(F)cc34)CC2)CN1Cc1ccccc1`, for which the affinity, expressed as Ki, was 7.94 µM.
